Source: patent US20240344032A1, “ORGANOID PRODUCTION METHOD, CULTURE MEDIUM FOR ORGANOID PRODUCTION, ORGANOID, AND TEST SUBSTANCE EVALUATION METHOD” (JSR CORPORATION, priority 2021, published 2024)
Where no end group is shown, it is not given here. [ ]: non-standard residue; d: D form. The star is where a group is joined. X1 = 4‑(carboxymethyl)piperazine‑1‑carbonyl, O=C(O)CN1CCN(C(=O)*)CC1; 1Nal = N[C@@H](Cc1cccc2ccccc12)C(=O)O; Gly(NCH2CH2Ph) = O=C(O)CNCCc1ccccc1; 4Pal = N[C@@H](Cc1ccncc1)C(=O)O

Experiments:
[1] = tested on: p38 MAPK signaling pathway; conditions: reported in Vogt J., et al., Cell Signal., 2011; cited from earlier work
[2] = tested on: Human small intestinal epithelial cells (including human small intestinal stem cells); test: Examination of EGFR signal and p38 MAPK signal: culture of small intestinal epithelial cells, bright field observation and Lgr5-tdTomato reporter assay; assay type: cell-based
Description: Upregulation of EGFR signal is known to induce cell proliferation. Therefore, the cell proliferative properties in a state where there was no EGFR signal were examined. […] Therefore, culturing was examined in the presence or absence of the p38 MAPK signal.
To the basal medium (Advanced DMEM/F12), each component was added to the concentration shown in Table 5 below to prepare a culture medium. Human small intestinal epithelial cells (including human small intestinal stem cells) were dispersed in Matrigel (registered trademark, manufactured by BD Biosciences). Subsequently, the dispersion product was seeded into each well of a 48-well tissue culture plate and incubated at 37° C. for 10 minutes to polymerize Matrigel (registered trademark).
Subsequently, 300 μL/well of a culture medium was overlaid, and culturing was carried out at 37° C. for 10 days in the presence of 5% by volume of CO2. The culture medium was exchanged every two or three days. Cells were cultured for 10 days in a culture medium containing EGF and cultured for 14 days in a culture medium containing no EGF. Thereafter, bright field observation with an optical microscope in the well and Lgr5-tdTomato reporter assay were carried out.

[3] = tested on: ALK5, VEGFR, RIPK2, MINK1, p38a MAPK, PKD1, and FGF-R1; conditions: known from the literature; cited from earlier work
[4] = tested on: primary human hepatocytes; test: Culturing of human hepatocytes (proliferation of cells); assay type: cell-based
Description: Cryopreserved primary human hepatocytes in suspension (HEP187-S, manufactured by Biopredic International) were thawed in a water bath at 37° C., suspended in a 50 mL tube to which a serum-free culture medium (a culture medium obtained by adding HEPES, GLUTAMAX, and PENICILIN/STEREPTOMYCIN to Advanced DMEM/F12) had been added, and centrifuged. After the centrifugation, the supernatant was removed, and then the resultant product was suspended in a serum-free culture medium to prepare a human hepatocyte suspension. 20,000 human hepatocytes were collected from the suspension, mixed with 50 μL of Matrigel (registered trademark, manufactured by BD Biosciences), seeded in a 24-well tissue culture plate, and incubated at 37° C. for 10 minutes until Matrigel (registered trademark) was completely polymerized. After the polymerization, a culture medium (500 μL/well) prepared by adding each component to a basal medium to have the concentration shown in Table 4 below was overlaid, and culturing was carried out at 37° C. in the presence of 5% by volume of CO2. Advanced DMEM/F12 was used as a basal medium. The culture medium was exchanged every two or three days.
FIG. 2 is a graph showing a result of measuring the proliferation of cells.
FIG. 3 is a graph showing a result of measuring proliferation of cells in a case where the concentration of the #7401 peptide was set to be low.

[5] = tested on: Human colon epithelial cells (including human colon stem cells); test: Culturing of human colon epithelial cells (organoid formation); assay type: cell-based; conditions: 0.5 nM, 5 nM, or 50 nM in culture medium, 7 days, optical microscope, FIG. 1
Description: To a basal medium, each component was added to have the concentration shown in Table 3 below to prepare a culture medium. In Table 3, “CM” means conditioned medium. Advanced DMEM/F12 was used as a basal medium. As the peptide, peptide names #7401 and #2392 were used (hereinafter, each may be referred to as “#7401 peptide” and “#2392 peptide”). Regarding the #7401 peptide, a chemical formula is shown in Formula (2-1), and an amino acid sequence (SEQ ID NO: 3) is shown in Formula (2-2). In addition, regarding the #2392 peptide, a chemical formula is shown in Formula (3-1), and an amino acid sequence (SEQ ID NO: 4) is shown in Formula (3-2).
Human colon epithelial cells (including human colon stem cells) were dispersed in Matrigel (registered trademark, manufactured by BD Biosciences). Subsequently, the dispersion product was seeded into each well of a 48-well tissue culture plate and incubated at 37° C. for 10 minutes to polymerize Matrigel (registered trademark).
Subsequently, the culture medium (300 μL/well) prepared in Experimental Example 1 was overlaid on each well, and culturing was carried out at 37° C. for 7 days in the presence of 5% by volume of CO2. The culture medium was exchanged every two or three days.

| Compound | inhibition of p38 MAPK signaling pathway [1] | cell proliferative properties and colony forming properties ([2]; medium containing EGF (50 ng/mL), no SB202190, 500 nM and 5000 nM, 10 days, FIG. 5) | stem cell properties (Lgr5-tdTomato reporter) versus 50 nM or 500 nM #7401 peptide ([2]; medium containing no EGF, no SB202190, 500 nM and 5000 nM, 14 days, FIG. 6) | stem cell properties (Lgr5-tdTomato reporter), 5000 nM versus 500 nM ([2]; medium containing no EGF, no SB202190, 14 days, FIG. 6) | action on ALK5 and off-target kinases/receptors [3] | proliferation of cells ([4]; 5 μM added to the culture medium, FIG. 2) | organoid formation efficiency compared with A83-01 [5] | proliferation of cells ([4]; 50 nM in the culture medium, FIG. 3) |
| --- | --- | --- | --- | --- | --- | --- | --- | --- |
| Cc1cccc(-c2nn(C(=S)Nc3ccccc3)cc2-c2ccnc3ccccc23)n1 [Peptide A83-01] | inhibits p38 MAPK signaling pathway | the cell proliferative properties and the colony forming properties were concentration-dependently inhibited | higher stem cell properties | higher stem cell properties | strongly act | proliferation of cells is not observed after 35 days | – | – |
| #2392 peptide: cyclic peptide, chemical formula in Formula (3-1), amino acid sequence (SEQ ID NO: 4) in Formula (3-2) (F[1Nal]VVNVTDD[Gly(NCH2CH2Ph)]V[1Nal]THVCG; bridge (positions not given here); not fully specified (bridges)) | – | – | – | – | – | – | organoids can be formed with an efficiency equal to or higher than that in a case where A83-01 was added | – |
| #7401 peptide: cyclic peptide, chemical formula in Formula (2-1), amino acid sequence (SEQ ID NO: 3) in Formula (2-2) (F[1Nal]VVNV[4Pal]DD[Gly(NCH2CH2Ph)]V[1Nal]THK(X1)CG; bridge (positions not given here); not fully specified (bridges)) | – | – | – | – | – | – | organoids can be formed with an efficiency equal to or higher than that in a case where A83-01 was added | cells can sufficiently proliferate |
